From patent US5310727A, “Pharmaceutical compositions for parenteral use containing a calcitonin as the active ingredient” (Scalvo S.p.A., priority 1986, dated 1994) come the findings set out here.

The nature of the data set: Solubility of the ingredient in water (description). As to conditions: white fluffy powder. It counts as physicochemical.

Where a SMILES comes first, the peptide text is derived from it. Bridges are numbered along the chain shown (N, C = ends).

Take `CC(C)C[C@H](NC(=O)[C@H](CCCCN)NC(=O)CNC(=O)[C@H](CC(C)C)NC(=O)[C@@H](NC(=O)[C@@H]1CSSC[C@H](N)C(=O)N[C@@H](CO)C(=O)N[C@@H](CC(N)=O)C(=O)N[C@@H](CC(C)C)C(=O)N[C@@H](CO)C(=O)N[C@@H]([C@@H](C)O)C(=O)N1)C(C)C)C(=O)N[C@@H](CO)C(=O)N[C@@H](CCC(N)=O)C(=O)N[C@@H](CCC(=O)O)C(=O)N[C@@H](CC(C)C)C(=O)N[C@@H](Cc1c[nH]cn1)C(=O)N[C@@H](CCCCN)C(=O)N[C@@H](CC(C)C)C(=O)N[C@@H](CCC(N)=O)C(=O)N[C@H](C(=O)N[C@@H](Cc1ccc(O)cc1)C(=O)N1CCC[C@H]1C(=O)N[C@@H](CCCNC(=N)N)C(=O)N[C@H](C(=O)N[C@@H](CC(=O)O)C(=O)N[C@H](C(=O)NCC(=O)N[C@@H](C)C(=O)NCC(=O)N[C@H](C(=O)N1CCC[C@H]1C(N)=O)[C@@H](C)O)C(C)C)[C@@H](C)O)[C@@H](C)O` [eel calcitonin, eel calcitonin (synthetic)] (H-CSNLSTCVLGKLSQELHKLQTYPRTDVGAGTP-NH2; disulfide 1-7): the Solubility in water result is “easily soluble in water”.
